Measured values: patent US9210928B2, “Plant development control composition” (Syngenta Crop Protection, LLC, priority 2008, dated 2015)

Test system: excised Arabidopsis nodes
Experiment: Axillary bud outgrowth assay in Arabidopsis stem sections
Type: in vivo
Settings: 100 μM inhibitor, 1 μM NAA; Col-0; FIG. 5
Method: Axillary bud outgrowth assay in Arabidopsis stein sections—The assays were performed essentially as described (40) with the following modifications. Small Petri dishes (50 mm diameter, 20 mm depth) were filled with 10 ml of ATS (39) supplemented with 1% agar and 1% sucrose. Inhibitors and α-naphthalene acetic acid (NAA) were added to the agar before pouring to give 100 μM and 1 μM, respectively. Thus, when the central strip was cut out of the agar, both the apical and basal media contained both NAA and inhibitor. Any nodes in which the apical end had curled out of the media or which bud length was less than 2 mm at the end of the experiment were discounted. Measurement of the shoot length was performed every 24 hours. For each assay a logistic curve was fitted using Genstat (10th edition, VSN international) with the fitcurve directive and the lag phase was calculated by extrapolating the linear part of the curve and the initial plateau (see supplementary methods). The x value of where these two lines intersected represented the lag phase.
A logistic curve, y=A+C/(1+e^−B(t−m)), was fitted to the data for each shoot using GenStat (10th edition). The lag phase was then calculated using the equation m−(2/B) which effectively gave the t value (time) of the intercept of the two extrapolated lines from the linear part of the curve and the initial plateau.
Stimulation of shoot branching in Arabidopsis stem sections by application of inhibitor—Auxin inhibits the outgrowth of axillary buds in wild-type Arabidopsis plants. In the AtCCD7 and AtCCD8 null mutants (max3 and max4, respectively) the response to auxin is reduced, presumably due to a block in formation of an apocarotenoid hormone (recently shown (17,18) to be strigolactone or a related compound) that suppresses branching (19), and axillary buds extend earlier, leading to formation of side branches. An in vitro assay was previously developed in which the growth of axillary buds from isolated sections of Arabidopsis stem was used to assess max mutants (40). […]

SMILES | effect on timing of bud outgrowth (in words)
COc1ccc(C(=O)N(O)Cc2ccccc2)cc1 [Compound F1, N-benzyl-4-methoxybenzoyl hydroxamic acid] | relatively small activity
COc1ccc(C(=O)N(O)Cc2ccc(F)cc2)cc1 [Compound F2, N-(4-fluorobenzyl)-4-methoxybenzoyl hydroxamic acid] | relatively small activity
